Assay results taken from patent US5571942A, “Ring-substituted 2-amino-1,2,3,4-tetrahydronaphthalenes and 3-aminochromanes” (Eli Lilly and Company, priority 1995, dated 1996).

Key:
Design in all cases: species or system rat (male Sprague-Dawley)
5-HT1A receptors [1] = biological target: T1, 5-HT1A receptors (Rattus norvegicus, UniProt P19327); test: in vivo lowering of brain 5-HIAA levels (5-HT1A agonist activity); details: one hour after treatment
T1 construct: from tissue; host or cells: cerebral cortex (crude synaptosomal membranes) of male Sprague-Dawley rats
T1 sequence (P19327 1-422): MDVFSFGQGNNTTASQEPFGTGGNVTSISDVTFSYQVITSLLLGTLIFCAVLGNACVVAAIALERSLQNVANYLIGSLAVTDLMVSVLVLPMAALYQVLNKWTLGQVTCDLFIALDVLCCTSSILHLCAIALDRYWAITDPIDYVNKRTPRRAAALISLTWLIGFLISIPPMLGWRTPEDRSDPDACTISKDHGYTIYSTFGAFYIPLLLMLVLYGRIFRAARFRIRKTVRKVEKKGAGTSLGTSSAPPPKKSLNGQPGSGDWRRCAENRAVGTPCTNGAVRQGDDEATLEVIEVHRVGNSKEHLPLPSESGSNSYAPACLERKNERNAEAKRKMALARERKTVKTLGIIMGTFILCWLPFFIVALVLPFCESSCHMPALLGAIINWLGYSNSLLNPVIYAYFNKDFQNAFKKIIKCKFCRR
Experimental: (§1) Compounds of this invention were also examined for their in vivo effects on brain 5-HIAA and serum corticosterone levels. Male Sprague-Dawley rats weighting 150-200 g were administered subcutaneously or orally with aqueous solutions of the test compound. One hour after treatment, the rats were decapitated and trunk blood collected. The blood was allowed to clot and then was centrifuged to separate the serum. The concentration of corticosterone in the serum was determined by the spectrofluorometric method of Solem, J. H.; Brinck-Johnsen, T., Scand. J. Clin. Invest. [Suppl. 80], 17, 1 (1965). The whole brains from the decapitated rats were quickly removed, frozen on dry ice, and stored at -15° C. 5-HIAA concentrations were measured by liquid chromatography with electrochemical detection as described by Fuller, R. W.; Snoddy, H. D.; Perry, K. W., Life Sci. 40, 1921 (1987).
(§2) The results provided in columns 3-5 are indicative of 5-HT1A agonist activity.

5-HT1A receptors [2] = biological target: T1, 5-HT1A receptors; test: in vivo elevation of serum corticosterone levels (5-HT1A agonist activity); details: sc, one hour after treatment
Experimental: as §1, §2

5-HT1A receptors [3] = biological target: T1, 5-HT1A receptors; test: in vitro binding: inhibition of 3H-8-OH-DPAT binding to synaptosomal membranes from rat cerebral cortex; details: 3H-8-OH-DPAT 2 nM, 37° C., 10 min, pH 7.4
From the text: Sites specifically labeled by tritiated 8-hydroxy-2-dipropylamino-1,2,3,4-tetrahydronaphthalene (^3 H-8-OH-DPAT) have been identified as 5-HT1A receptors. This general procedure is set forth in Wong et al., J. Neural Transm. 71:207-218 (1988).
Male Sprague-Dawley rats (110-150 g) from Harlan Industries (Cumberland, Ind.) were fed a Purina Chow ad libitum for at least 3 days before being used in the studies. Rats were killed by decapitation. The brains were rapidly removed, and the cerebral cortices were dissected out at 4° C.
Brain tissues were homogenized in 0.32M sucrose. After centrifugation at 1000×g for 10 min and then at 17000×g for 20 min, a crude synaptosomal fraction was sedimented. The pellet was suspended in 100 vol of 50 mM Tris-HCl, pH 7.4, incubated at 37° C. for 10 min, and centrifuged at 50000×g for 10 min. The process was repeated and the final pellet was suspended in ice-chilled 50 mM Tris-HCl, pH 7.4.
Binding of ^3 H-8-OH-DPAT was performed according to the previously described method [Wong et al., J. Neural Transm. 64:251-269 (1985)]. Briefly, synaptosomal membranes isolated from cerebral cortex were incubated at 37° C. for 10 min. in 2 ml of 50 mM Tris-HCl, pH 7.4; 10 mM pargyline; 0.6 mM ascorbic acid; 5 mM CaCl2; 2 nM ^3 H-8-OH-DPAT and 0.1 to 1000 nm of the compound of interest. Binding was terminated by filtering samples under reduced pressure through glass fiber (GFB) filters. The filters were washed twice with 5 ml of ice cold buffer and placed in scintillation vials with 10 ml of PCS (Amersham/Searle) scintillation fluid. Radioactivity was measured with a liquid scintillation spectrometer. Unlabeled 8-OH-DPAT at 10 μM was also included in separate samples to establish non-specific binding. Specific binding of ^3 H-8-OH-DPAT is defined as the difference of radioactivity bound in the absence and in the presence of 10 μM unlabeled 8-OH-DPAT.
as §2

Row | Compound | 5-HIAA MED (minimum effective dose lowering brain 5-HIAA levels) (5-HT1A receptors [1]; sc) [mg/kg] | Corticosterone MED (minimum effective dose elevating serum corticosterone levels) (5-HT1A receptors [2]) [mg/kg] | IC50 (5-HT1A receptors [3]) [nM] | 5-HIAA MED (minimum effective dose lowering brain 5-HIAA levels) (5-HT1A receptors [1]; po) [mg/kg]
1 | CCCN(CCC)C1CCc2cccc(-c3cccnc3)c2C1 (stereo not shown) [Example 14, 2-Di-n-propylamino-8-(pyrid-3-yl)-1,2,3,4-tetrahydronaphthalene] | > 1.0 | > 1.0 | 7.2 | –
2 | CCCN(CCC)C1CCc2cccc(-c3cc(C)no3)c2C1 (stereo not shown) [Example 23, 2-Di-n-propylamino-8-(3-methylisoxazol-5-yl)-1,2,3,4-tetrahydronaphthalene] | 1.0 | > 1.0 | – | –
3 | CCCN(CCC)C1CCc2cccc(-c3csc(N)n3)c2C1 (stereo not shown) [Example 10, 2-Di-n-propylamino-8-(2-aminothiazol-4-yl)-1,2,3,4-tetrahydronaphthalene] | – | – | 19 | –
4 | CCCN(CCC)C1CCc2cccc(-c3nc(-c4ccccc4)no3)c2C1 (stereo not shown) [Example 34, 2-Di-n-propylamino-8-(3-phenyl-1,2,4-oxadiazol-5-yl)-1,2,3,4-tetrahydronaphthalene] | – | – | 11 | –
5 | CCCN(CCC)C1CCc2cccc(-c3ccnn3C)c2C1 (stereo not shown) [5 (5-yl), 2-Di-n-propylamino-8-(1-methylpyrazol-5-yl)-1,2,3,4-tetrahydronaphthalene] | – | – | 7.2 | –
6 | CCCN(CCC)C1CCc2cccc(-c3ccc4ccccc4n3)c2C1 (stereo not shown) [Example 12, 2-Di-n-propylamino-8-(quinol-2-yl)-1,2,3,4-tetrahydronaphthalene] | – | – | 87 | –
7 | CCCN(CCC)C1CCc2cccc(-c3cc(C)on3)c2C1 (stereo not shown) [Example 28, 2-Di-n-propylamino-8-(5-methylisoxazol-3-yl)-1,2,3,4-tetrahydronaphthalene] | > 1.0 | > 1.0 | 3.8 | –
8 | CCCN(CCC)C1CCc2cccc(-c3noc(-c4ccccc4)n3)c2C1 (stereo not shown) [Example 2, 2-Di-n-propylamine-8-(5-phenyl-1,2,4-oxadiazol-3-yl)-1,2,3,4-tetrahydronaphthalene] | – | – | 36 | –
9 | CCCN(CCC)C1CCc2cccc(-c3cc(Br)no3)c2C1 (stereo not shown) [Example 20, 2-Di-n-propylamino-8-(3-bromoisoxazol-5-yl)-1,2,3,4-tetrahydronaphthalene] | > 1.0 | > 1.0 | – | –
10 | CCCN(CCC)C1CCc2cccc(-c3ccno3)c2C1 (stereo not shown) [Example 8, 2-Di-n-propylamino-8-(isoxazol-5-yl)-1,2,3,4-tetrahydronaphthalene] | 0.1 | 0.3 | – | 3
11 | CCCN(CCC)C1CCc2cccc(-c3noc4ccccc34)c2C1 (stereo not shown) [Example 17, 2-Di-n-propylamino-8-(indoxazin-3-yl)-1,2,3,4-tetrahydronaphthalene] | > 1.0 | > 1.0 | 5 | –
12 | CCCN(CCC)C1CCc2cccc(-c3oncc3OC)c2C1 (stereo not shown) [Example 31, 2-Di-n-propylamino-8-(4-methoxyisoxazol-5-yl)-1,2,3,4-tetrahydronaphthalene] | 1.0 | > 1.0 | – | –
13 | CCCN(CCC)C1CCc2cccc(-c3cc(SC)no3)c2C1 (stereo not shown) [Example 30, 2-Di-n-propylamino-8-(3-methylthioisoxazol-5-yl)-1,2,3,4-tetrahydronaphthalene] | > 1.0 | > 1.0 | – | –
14 | CCCN(CCC)C1CCc2cccc(-c3oncc3C)c2C1 (stereo not shown) [Example 21, 2-Di-n-propylamino-8-(4-methylisoxazol-5-yl)-1,2,3,4-tetrahydronaphthalene] | 0.3 | 1.0 | – | > 10
15 | CCCN(CCC)C1CCc2cccc(-c3ccccn3)c2C1 (stereo not shown) [Example 15, 2 -Di-n-propylamino-8-(pyrid-2-yl)-1,2,3,4-tetrahydronaphthalene] | – | – | 33 | –
16 | CCCN(CCC)C1CCc2cccc(-c3nocc3C)c2C1 (stereo not shown) [Example 26, 2-Di-n-propylamino-8-(4-methylisoxazol-3-yl)-1,2,3,4-tetrahydronaphthalene] | 1.0 | > 1.0 | 6.4 | –
17 | CCCN(CCC)C1CCc2cccc(-c3ccnc(N)n3)c2C1 (stereo not shown) [Example 32, 2-Di-n-propylamino-8-(2-aminopyrimidin-4-yl)-1,2,3,4-tetrahydronaphthalene] | – | – | 67 | –
18 | CCCN(CCC)C1CCc2cccc(-c3ccn(C)n3)c2C1 (stereo not shown) [5 (3-yl), 2-Di-n-propylamino-8-(1-methylpyrazol-3-yl)-1,2,3,4-tetrahydronaphthalene] | > 1.0 | 1.0 | 5 | –
19 | CCCN(CCC)C1CCc2cccc(-c3cscn3)c2C1 (stereo not shown) [Example 11, 2-Di-n-propylamino-8-(thiazol-4-yl)-1,2,3,4-tetrahydronaphthalene] | > 1.0 | > 1.0 | 4.9 | –
20 | CCCN(CCC)C1CCc2cccc(-c3ccncc3)c2C1 (stereo not shown) [Example 16, 2-Di-n-propylamino-8-(pyrid-4-yl)-1,2,3,4-tetrahydronaphthalene] | > 1.0 | > 1.0 | 9.8 | –
21 | CCCN(CCC)C1CCc2cccc(-c3ccon3)c2C1 (stereo not shown) [Example 25] | 0.3 | 0.3 | 1.4 | 10
22 | CCCN(CCC)C1CCc2cccc(-c3cc(O)[nH]n3)c2C1 (stereo not shown) [Example 6, 2-Di-n-propylamino-8-(5-hydroxypyrazol-3-yl)-1,2,3,4-tetrahydronaphthalene] | – | – | 62 | –
23 | CCCN(CCC)C1CCc2cccc(-c3nc(C)no3)c2C1 (stereo not shown) [Example 35, 2-Di-n-propylamino-8-(3-methyl-1,2,4-oxidiazol-5-yl)-1,2,3,4-tetrahydronaphthalene] | – | – | 16 | –
24 | CCCN(CCC)C1CCc2cccc(-c3cc[nH]n3)c2C1 (stereo not shown) [Example 33, 2-Di-n-propylamino-8-(pyrazol-3-yl)-1,2,3,4-tetrahydronaphthalene] | > 1.0 | > 1.0 | 4.9 | –
25 | CCCN(CCC)C1CCc2cccc(-c3cnc4ccccc4c3)c2C1 (stereo not shown) [Example 13, 2-Di-n-propylamino-8-(quinol-3-yl)-1,2,3,4-tetrahydronaphthalene] | – | – | 16 | –
